Columns and labels:
[1] = tested on: Mice, strain ICR; assay: Open field (OF) test, 15 minute session of spontaneous activity
Method: Open Field (OF) tests were performed as follows—Fifteen minutes after test item/vehicle administration, mice were placed at the center of an open field box (43×43×40 cm) between 9 AM and 5 PM. On each side of the open field box, two frames placed at 2 and 5 cm height with 16 photocell beams per side ensure movement detection. The computer defined grid lines that divided the open field into two compartments: margin and center. Several variables were recorded during a 15 minute session of spontaneous activity including: time spent moving, traveled distance, time spent and number of visits to the central compartment.

[2] = tested on: Mice, strain ICR; assay: Tail pinch test (modified Haffner's method); conditions: first test 15 min after dosing

COc1ccc2c3c1O[C@H]1C(=O)CC[C@@]4(O)[C@@H](C2)N(C)CC[C@]314 [oxycodone]
Total distance traveled compared to vehicle control group (1M) ([1]; oxycodone 10 mg/kg IP (PEA 25 mg/kg where combined), dosed 15 min before test, 6M P<0.001, 8M P<0.05, FIG. 1, associated with irritation level): significantly higher | Average animal velocity compared to vehicle control group (1M) ([1]; oxycodone 10 mg/kg IP (PEA 25 mg/kg where combined), total distance (cm) / total moving time (sec), 6M P<0.001, 8M P<0.05, FIG. 2, associated with uncontrolled movement and confusion): significantly higher | Total distance traveled, effect of oxycodone (dose-dependent) ([1]; oxycodone 5 and 10 mg/kg IP compared to vehicle 1M, FIG. 1): significantly increased | Average animal velocity, effect of oxycodone (dose-dependent) ([1]; oxycodone 5 and 10 mg/kg IP compared to vehicle 1M, FIG. 2): significantly increased | Time after administration at which the analgesic effect began ([2]; high dose oxycodone 10 mg/kg IP (PEA 25 mg/kg where combined), FIG. 3A): 15 min | Time after administration at which the analgesic effect began ([2]; low dose oxycodone 5 mg/kg IP (PEA 25 mg/kg where combined), FIG. 3B): 15 min
